Laboratory results published in patent US20230218774A1, “DRUG ANTIBODY CONJUGATES” (PHARMA MAR, S.A., priority 2019, published 2023).
Values joined by “and” are separate entries in the source; they are usually repeats but may differ in a detail not shown here. Equal entries are not always repeated.

Key:
Format in all cases: cell-based
[1] = system: MCF-7 (breast cancer, HER2−); experiment: SRB colorimetric cytotoxicity assay, MCF-7; conditions: Homo sapiens, MCF7, 72 h
Text: (§1) The aim of the assay was to evaluate the in vitro cytostatic (ability to delay or arrest tumor cell growth) or cytotoxic (ability to kill tumor cells) activity of the samples being tested.
(§2) The following human tumor cell lines were obtained from the American Type Culture Collection (ATCC): SK-BR-3 (ATCC HB-30), HCC-1954 (ATCC CRL-2338) (both being breast cancer, HER2+), MDA-MB-231 (ATCC HTB-26), MCF-7 (ATCC HTB-22) (both being breast cancer, HER2−).
(§3) For SK-BR-3, HCC-1954, MDA-MB-231 and MCF-7 cells, a colorimetric assay using Sulforhodamine B (SRB) was adapted for quantitative measurement of cell growth and cytotoxicity, as described by V. Vichai and K. Kirtikara. In “Sulforhodamine B colorimetric assay for cytotoxicity screening”, Nature Protocols, 2006, 1: 1112-1116. Briefly, cells were seeded in 96-well microtiter plates and allowed to stand for 24 hours in drug-free medium before treatment with vehicle alone or with the tested substances for 72 hours. For quantification, cells were washed twice with phosphate buffered saline (PBS), fixed for 15 min in 1% glutaraldehyde solution, rinsed twice with PBS, stained in 0.4% (w/v) SRB with 1% (v/v) acetic acid solution for 30 min, rinsed several times with 1% acetic acid solution and air-dried.
(§4) Cell survival was expressed in all cases as percentage of control, untreated cell survival. […]

[2] = system: HCC-1954 (breast cancer, HER2+); experiment: SRB colorimetric cytotoxicity assay, HCC-1954; conditions: Homo sapiens, HCC1954, 72 h
Text: as §1, §2, §3, §4

[3] = system: MDA-MB-231 (breast cancer, HER2−); experiment: SRB colorimetric cytotoxicity assay, MDA-MB-231; conditions: Homo sapiens, MDA-MB-231, 72 h
Text: as §1, §2, §3, §4

[4] = system: SK-BR-3 (breast cancer, HER2+); experiment: SRB colorimetric cytotoxicity assay, SK-BR-3; conditions: Homo sapiens, SK-BR-3, 72 h
Text: as §1, §2, §3, §4

C=C1C[C@](OC)([C@H](O)C(=O)N[C@@H](OC)[C@@H]2C[C@@H](O)C(C)(C)[C@@H](C[C@@H](COC(=O)NCCCNC(=O)CCCCCN3C(=O)C=CC3=O)OC)O2)O[C@H](C)[C@@H]1C (racemic) [DL-2]
IC50 [1]: 0.0759 µg/mL and 97 nM | IC50 [2]: 0.076 µg/mL and 97.1 nM | IC50 [3]: 0.0652 µg/mL and 83.3 nM | IC50 [4]: 0.108 µg/mL and 138 nM
